pEC50: −log10 of the molar value.
Assays:
Assay in all cases: Cell line panel 2 high-content screen
Assay type in all cases: cell-based
NCl-H520 = NCl-H520 (lung NSCLC); 72 hours
Method: (§1) To support clinical development and identify potential biomarkers of tumor sensitivity or resistance, two large cancer cell line panels (Panel 1, N=653 (McDermott et al. (2007) PNAS 104:19936-19941); Panel 2, N=240 (O'Day et al. (2010) Fourth AACR International Conference on Molecular Diagnostics in Cancer Therapeutic Development)) were treated with MLN4924 and cell viability data (IC50, EC50, and POC—Percentage of Control) were generated.
(§2) Panel 2 (Ricerca Biosciences, Inc., Bothell, Wash.). MLN4924 was added in half-log dilutions for 10 concentrations and treated for 72 hours. High-content cell screening by fluorescence microscopy included image analysis to generate several types of data. Results included EC50 values (after measurement of cell numbers, the EC50 concentration was calculated from the inflection point of a curve of percent of control (POC) against log of MLN4924 concentration), IC50 values (from the POC-log MLN4924 plot, IC50 is the concentration at 50% maximal possible response), apoptosis (measurement of activation of caspase 3 plotted against log of MLN4924 concentration, determined as the concentration for >5 fold induction), and mitotic activity (determined by measuring the fold increase of phospho-histone 3). A comparison of EC50 to IC50 (FIG. 3) allowed assignment of cell lines to sensitive, insensitive or resistant. Final identification of a cell line as sensitive or resistant was based on the EC50 values. The cutoff for sensitivity is a median EC50 of less than the median value of all POC's recorded in the panel (<0.36), borderline sensitivity was associated with median EC50 of 0.36 to 1.67 and insensitive or resistant cell lines were identified by EC50 greater than the 3rd quartile of all POC's in the panel (>1.67).

LS-174T = details: Homo sapiens, LS174T; LS-174T (large_intestine); 72 hours
Method: as §1, §2

BxPC-3 = details: Homo sapiens; BxPC-3 (pancreas); 72 hours
Method: as §1, §2

SW1417 = details: Homo sapiens; SW1417 (intestine); 72 hours
Method: as §1, §2

SW837 = details: Homo sapiens; SW837 (intestine); 72 hours
Method: as §1, §2

THP-1 = THP-1 (haematopoietic, lymphoid_tissue)
Method: as §1, §2

HT29 = details: Homo sapiens; HT29 / HT-29 (intestine); 72 hours
Method: as §1, §2

YAPC = details: Homo sapiens; YAPC (pancreas); 72 hours
Method: as §1, §2

SW620 = details: Homo sapiens, SW-620; SW620 (intestine); 72 hours
Method: as §1, §2

CAL-27 = details: Homo sapiens; CAL-27 (upper aerodigestive tract); 72 hours
Method: as §1, §2

SW954 = SW954 (vulva)
Method: as §1, §2

CFPAC-1 = details: Homo sapiens; CFPAC-1 (pancreas); 72 hours
Method: as §1, §2

T84 = details: Homo sapiens; T84 (intestine); 72 hours
Method: as §1, §2

ACHN = details: Homo sapiens; ACHN (kidney); 72 hours
Method: as §1, §2

MDA-MB-231 = details: Homo sapiens; MDA-MB-231 (breast); 72 hours
Method: as §1, §2

SW 1116 = details: Homo sapiens; SW 1116 (intestine); 72 hours
Method: as §1, §2

RL95-2 = RL95-2 (endometrium)
Method: as §1, §2

COLO320 HSR = details: Homo sapiens, COLO-320-HSR; COLO320 HSR (intestine); 72 hours
Method: as §1, §2

COLO-205 = details: Homo sapiens; COLO-205 (intestine); 72 hours
Method: as §1, §2

647-V = details: Homo sapiens; 647-V (urinary_tract); 72 hours
Method: as §1, §2

MIA-PaCa-2 = details: Homo sapiens; MIA-PaCa-2 (pancreas); 72 hours
Method: as §1, §2

SK-OV-3 = details: Homo sapiens; SK-OV-3 (ovary); 72 hours
Method: as §1, §2

MDA-MB-468 = details: Homo sapiens; MDA-MB-468 (breast); 72 hours
Method: as §1, §2

CAL-62 = details: Homo sapiens; CAL-62 (thyroid); 72 hours
Method: as §1, §2

NClH747 = NClH747 (intestine); 72 hours
Method: as §1, §2

SKUT1 = details: Homo sapiens, SK-UT-1; SKUT1 (smooth muscle); 72 hours
Method: as §1, §2

FADU = details: Homo sapiens; FADU (upper aerodigestive tract); 72 hours
Method: as §1, §2

HCT-15 = details: Homo sapiens; HCT-15 (intestine); 72 hours
Method: as §1, §2

Structure (SMILES): NS(=O)(=O)OC[C@@H]1C[C@@H](n2ccc3c(N[C@H]4CCc5ccccc54)ncnc32)C[C@@H]1O [MLN4924, ((1S,2S,4R)-4-{4-[(1S)-2,3-dihydro-1H-inden-1-ylamino]-7H-pyrrolo[2,3-d]pyrimidin-7-yl}-2-hydroxycyclopentyl)methyl sulphamate]
- pEC50 (NCl-H520): 6.58
- pEC50 (LS-174T): 6.86
- pEC50 (BxPC-3): 6.60
- pEC50 (SW1417): 5.04
- pEC50 (SW837): 6.16
- pEC50 (THP-1; Homo sapiens, 72 hours): 6.83
- Phenotype (THP-1; KDM6A mutant): sensitive (The cutoff for sensitivity is a median EC50 of less than the median value of all POC's recorded in the panel (<0.36))
- pEC50 (HT29): 6.60
- pEC50 (YAPC): 6.63
- pEC50 (SW620): 6.41
- pEC50 (CAL-27): 6.86
- pEC50 (SW954; Homo sapiens, SW 954, 72 hours): 6.49
- Phenotype (SW954; SMAD4 mutant): sensitive (The cutoff for sensitivity is a median EC50 of less than the median value of all POC's recorded in the panel (<0.36))
- pEC50 (CFPAC-1): 5.20
- pEC50 (T84): 6.25
- pEC50 (ACHN): 6.19
- pEC50 (MDA-MB-231): 6.06
- pEC50 (SW 1116): 5.00
- pEC50 (RL95-2; Homo sapiens, 72 hours): 7.03
- Phenotype (RL95-2; NF2 mutant): sensitive (The cutoff for sensitivity is a median EC50 of less than the median value of all POC's recorded in the panel (<0.36))
- pEC50 (COLO320 HSR): 5.75
- pEC50 (COLO-205): 7.03
- pEC50 (647-V): 6.55
- pEC50 (MIA-PaCa-2): 6.62
- pEC50 (SK-OV-3): 5.00
- pEC50 (MDA-MB-468): 7.57
- pEC50 (CAL-62): 7.08
- pEC50 (NClH747): 5.68
- pEC50 (SKUT1): 7.07
- pEC50 (FADU): 6.58
- pEC50 (HCT-15): 6.08

Reference: patent US20150119410A1, “BIOMARKERS OF RESPONSE TO NAE INHIBITORS” (MILLENNIUM PHARMACEUTICALS, INC., priority 2011, published 2015)
